Results: paper PMC7026418, “The kinase polypharmacology landscape of clinical PARP inhibitors” (Scientific Reports, 2020)
Like-named read-outs stand apart in the source and are kept apart here. Each block holds one compound with its values, some of them ahead of it.

Legend:
Assay in all cases: biochemical
Design in all cases: DiscoveRx KINOMEscan active site-directed competition binding; percent of control kinase bound to immobilised ligand
[1] = biological target: FGFR4 (Homo sapiens, UniProt P22455)
Chain of FGFR4 (P22455 whole entry): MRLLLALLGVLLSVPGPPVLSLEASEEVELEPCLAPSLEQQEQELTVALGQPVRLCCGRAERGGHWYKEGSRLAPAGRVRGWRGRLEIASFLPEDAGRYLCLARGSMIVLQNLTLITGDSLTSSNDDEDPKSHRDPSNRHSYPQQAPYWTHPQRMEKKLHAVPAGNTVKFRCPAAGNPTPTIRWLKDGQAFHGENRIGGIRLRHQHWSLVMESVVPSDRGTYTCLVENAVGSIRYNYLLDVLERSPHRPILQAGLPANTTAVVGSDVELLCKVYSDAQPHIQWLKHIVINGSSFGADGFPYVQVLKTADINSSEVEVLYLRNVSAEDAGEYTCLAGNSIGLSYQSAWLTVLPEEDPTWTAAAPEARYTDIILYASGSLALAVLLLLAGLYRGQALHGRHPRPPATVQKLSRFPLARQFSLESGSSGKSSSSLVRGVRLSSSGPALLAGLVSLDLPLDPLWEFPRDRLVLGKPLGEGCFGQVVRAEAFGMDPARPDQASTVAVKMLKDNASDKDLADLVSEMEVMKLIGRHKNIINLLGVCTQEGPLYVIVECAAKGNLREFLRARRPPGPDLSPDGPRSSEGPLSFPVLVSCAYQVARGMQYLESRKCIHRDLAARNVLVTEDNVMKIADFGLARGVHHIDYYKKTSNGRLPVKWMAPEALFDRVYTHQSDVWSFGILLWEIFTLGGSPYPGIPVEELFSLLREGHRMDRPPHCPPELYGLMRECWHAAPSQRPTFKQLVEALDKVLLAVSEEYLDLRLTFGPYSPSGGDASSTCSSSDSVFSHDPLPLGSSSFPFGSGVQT

[2] = biological target: T1, CDKL2 (Homo sapiens, UniProt Q92772)
T1 sequence (Q92772 1-493): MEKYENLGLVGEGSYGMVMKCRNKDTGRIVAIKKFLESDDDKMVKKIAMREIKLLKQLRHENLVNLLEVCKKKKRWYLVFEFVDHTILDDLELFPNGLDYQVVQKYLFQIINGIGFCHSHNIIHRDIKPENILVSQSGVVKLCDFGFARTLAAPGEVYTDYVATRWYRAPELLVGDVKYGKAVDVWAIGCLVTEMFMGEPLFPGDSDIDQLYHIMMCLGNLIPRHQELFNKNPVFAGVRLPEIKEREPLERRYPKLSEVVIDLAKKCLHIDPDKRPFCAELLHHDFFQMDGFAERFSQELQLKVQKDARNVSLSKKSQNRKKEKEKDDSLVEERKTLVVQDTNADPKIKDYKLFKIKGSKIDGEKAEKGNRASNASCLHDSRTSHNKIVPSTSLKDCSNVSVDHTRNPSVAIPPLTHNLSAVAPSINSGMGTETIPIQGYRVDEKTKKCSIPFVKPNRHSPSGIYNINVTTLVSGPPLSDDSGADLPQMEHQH

[3] = biological target: T2, ERK1 (Homo sapiens, UniProt P27361)
T2 construct: gene MAPK3
T2 sequence (P27361 whole entry): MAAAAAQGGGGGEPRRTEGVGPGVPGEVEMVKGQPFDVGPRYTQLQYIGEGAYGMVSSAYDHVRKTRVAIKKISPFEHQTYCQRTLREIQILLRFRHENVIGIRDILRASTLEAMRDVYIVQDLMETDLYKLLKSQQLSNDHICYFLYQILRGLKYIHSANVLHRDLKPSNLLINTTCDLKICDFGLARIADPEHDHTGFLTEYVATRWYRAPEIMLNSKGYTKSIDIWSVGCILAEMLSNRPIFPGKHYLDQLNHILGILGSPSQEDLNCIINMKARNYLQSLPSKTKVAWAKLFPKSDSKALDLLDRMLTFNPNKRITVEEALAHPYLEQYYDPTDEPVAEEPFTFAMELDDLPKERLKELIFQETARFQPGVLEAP

[4] = biological target: PIK3CA(E542K) (Homo sapiens, UniProt P42336, E542K)
Chain of PIK3CA(E542K) (P42336 whole entry E542K): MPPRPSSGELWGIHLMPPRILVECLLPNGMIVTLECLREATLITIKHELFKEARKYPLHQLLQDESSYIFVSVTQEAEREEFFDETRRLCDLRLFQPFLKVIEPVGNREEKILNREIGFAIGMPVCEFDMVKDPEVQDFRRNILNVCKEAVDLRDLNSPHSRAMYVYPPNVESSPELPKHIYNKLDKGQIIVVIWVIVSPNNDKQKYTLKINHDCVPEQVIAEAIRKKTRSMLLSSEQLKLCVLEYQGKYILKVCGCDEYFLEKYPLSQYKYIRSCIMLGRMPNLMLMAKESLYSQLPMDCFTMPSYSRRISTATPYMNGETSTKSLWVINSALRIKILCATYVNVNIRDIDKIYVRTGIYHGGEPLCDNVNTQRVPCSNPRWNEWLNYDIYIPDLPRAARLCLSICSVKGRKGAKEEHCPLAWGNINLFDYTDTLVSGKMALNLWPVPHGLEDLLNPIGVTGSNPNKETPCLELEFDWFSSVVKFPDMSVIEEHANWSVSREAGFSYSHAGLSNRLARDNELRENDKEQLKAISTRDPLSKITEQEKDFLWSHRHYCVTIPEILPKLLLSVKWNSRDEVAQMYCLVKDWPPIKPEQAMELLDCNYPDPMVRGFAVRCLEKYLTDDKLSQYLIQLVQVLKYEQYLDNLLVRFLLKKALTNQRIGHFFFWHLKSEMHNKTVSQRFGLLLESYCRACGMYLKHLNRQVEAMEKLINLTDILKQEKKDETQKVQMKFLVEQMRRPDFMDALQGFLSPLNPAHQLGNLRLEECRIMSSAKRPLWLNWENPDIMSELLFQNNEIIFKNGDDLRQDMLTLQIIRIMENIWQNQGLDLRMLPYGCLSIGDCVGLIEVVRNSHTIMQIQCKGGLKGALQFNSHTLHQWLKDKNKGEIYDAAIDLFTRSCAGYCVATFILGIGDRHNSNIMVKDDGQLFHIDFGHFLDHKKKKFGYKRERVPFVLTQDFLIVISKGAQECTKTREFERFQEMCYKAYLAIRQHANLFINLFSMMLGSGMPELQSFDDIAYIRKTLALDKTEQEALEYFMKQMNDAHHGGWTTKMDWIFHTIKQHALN

[5] = biological target: T3, NEK5 (Homo sapiens, UniProt Q6P3R8)
T3 sequence (Q6P3R8 1-708): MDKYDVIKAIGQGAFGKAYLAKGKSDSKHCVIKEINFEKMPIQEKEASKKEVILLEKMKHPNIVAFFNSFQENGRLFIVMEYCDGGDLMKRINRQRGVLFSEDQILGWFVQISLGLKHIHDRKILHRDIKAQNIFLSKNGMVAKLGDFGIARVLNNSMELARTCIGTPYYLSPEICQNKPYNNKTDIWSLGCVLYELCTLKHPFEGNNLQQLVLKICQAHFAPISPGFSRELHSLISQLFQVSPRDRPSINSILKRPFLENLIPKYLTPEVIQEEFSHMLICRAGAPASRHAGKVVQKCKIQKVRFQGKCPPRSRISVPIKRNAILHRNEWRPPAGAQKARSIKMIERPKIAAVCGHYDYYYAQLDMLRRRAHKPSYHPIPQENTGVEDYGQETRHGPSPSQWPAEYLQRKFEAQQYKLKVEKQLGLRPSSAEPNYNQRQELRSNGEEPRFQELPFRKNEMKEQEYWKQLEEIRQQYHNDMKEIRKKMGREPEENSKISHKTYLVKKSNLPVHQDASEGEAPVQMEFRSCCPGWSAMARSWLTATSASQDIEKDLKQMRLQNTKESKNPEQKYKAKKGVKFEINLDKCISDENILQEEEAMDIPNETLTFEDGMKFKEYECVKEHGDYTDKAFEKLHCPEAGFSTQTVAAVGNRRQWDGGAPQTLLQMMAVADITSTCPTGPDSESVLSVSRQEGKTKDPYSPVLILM

[6] = biological target: T4, EPHB6 (Homo sapiens, UniProt O15197)
T4 sequence (O15197 1-1021): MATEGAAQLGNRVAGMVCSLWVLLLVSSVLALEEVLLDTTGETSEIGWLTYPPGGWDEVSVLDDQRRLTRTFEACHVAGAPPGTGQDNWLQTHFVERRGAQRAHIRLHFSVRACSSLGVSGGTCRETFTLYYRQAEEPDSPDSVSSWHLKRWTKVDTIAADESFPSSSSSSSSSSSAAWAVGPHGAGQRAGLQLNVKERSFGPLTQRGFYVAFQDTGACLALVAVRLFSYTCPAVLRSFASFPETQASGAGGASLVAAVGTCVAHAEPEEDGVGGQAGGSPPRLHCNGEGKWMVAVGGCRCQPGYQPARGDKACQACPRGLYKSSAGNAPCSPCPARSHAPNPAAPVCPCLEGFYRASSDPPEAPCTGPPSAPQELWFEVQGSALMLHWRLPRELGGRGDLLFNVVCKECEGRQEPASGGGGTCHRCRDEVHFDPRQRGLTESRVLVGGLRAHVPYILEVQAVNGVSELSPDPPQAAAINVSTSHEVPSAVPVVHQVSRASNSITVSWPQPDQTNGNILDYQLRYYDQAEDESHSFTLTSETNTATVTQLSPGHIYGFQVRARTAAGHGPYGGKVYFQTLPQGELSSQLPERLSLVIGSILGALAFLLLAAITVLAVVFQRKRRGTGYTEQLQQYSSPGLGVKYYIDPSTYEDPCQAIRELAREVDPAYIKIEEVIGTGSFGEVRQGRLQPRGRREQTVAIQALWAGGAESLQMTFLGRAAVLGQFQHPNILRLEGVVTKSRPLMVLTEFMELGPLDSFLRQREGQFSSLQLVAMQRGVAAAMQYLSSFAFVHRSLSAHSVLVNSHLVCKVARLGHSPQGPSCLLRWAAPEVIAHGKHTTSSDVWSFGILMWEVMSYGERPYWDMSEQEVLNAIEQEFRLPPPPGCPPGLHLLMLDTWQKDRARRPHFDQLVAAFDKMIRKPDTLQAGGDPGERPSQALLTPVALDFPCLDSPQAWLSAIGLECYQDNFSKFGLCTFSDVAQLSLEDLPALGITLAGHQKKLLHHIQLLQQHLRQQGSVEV

[7] = read-out: Olaparib / %Ctrl @ 10000nM
[8] = read-out: Talazoparib (BMN 673) / %Ctrl @ 10000nM
[9] = read-out: Rucaparib / %Ctrl @ 10000nM, binding competition, % of control
[10] = read-out: Niraparib (MK-4827) / %Ctrl @ 10000nM

percent of control binding at 10 µM [1, 7]: 82%
percent of control binding at 10 µM [2, 7]: 99%
percent of control binding at 10 µM [3, 7]: 98%
percent of control binding at 10 µM [4, 7]: 94%
percent of control binding at 10 µM [5, 7]: 96%
percent of control binding at 10 µM [6, 7]: 81%
SMILES: O=C(c1cc(Cc2n[nH]c(=O)c3ccccc23)ccc1F)N1CCN(C(=O)C2CC2)CC1 [Olaparib]

percent of control binding at 10 µM [1, 8]: 100%
percent of control binding at 10 µM [2, 8]: 100%
percent of control binding at 10 µM [3, 8]: 87%
percent of control binding at 10 µM [4, 8]: 100%
percent of control binding at 10 µM [5, 8]: 97%
percent of control binding at 10 µM [6, 8]: 84%
SMILES: Cn1ncnc1[C@H]1c2n[nH]c(=O)c3cc(F)cc(c23)N[C@@H]1c1ccc(F)cc1 [Talazoparib]

percent of control binding at 10 µM [1, 9]: 91%
percent of control binding at 10 µM [2, 9]: 59%
percent of control binding at 10 µM [3, 9]: 100%
percent of control binding at 10 µM [4, 9]: 82%
percent of control binding at 10 µM [5, 9]: 87%
percent of control binding at 10 µM [6, 9]: 50%
SMILES: CNCc1ccc(-c2[nH]c3cc(F)cc4c3c2CCNC4=O)cc1 [Rucaparib]

SMILES: NC(=O)c1cccc2cn(-c3ccc([C@@H]4CCCNC4)cc3)nc12 [Niraparib]
percent of control binding at 10 µM [1, 10]: 94%
percent of control binding at 10 µM [2, 10]: 23%
percent of control binding at 10 µM [3, 10]: 98%
percent of control binding at 10 µM [4, 10]: 100%
percent of control binding at 10 µM [5, 10]: 89%
percent of control binding at 10 µM [6, 10]: 34%
